According to patent publication US7981936B2, “Crystalline ACAT inhibitor” (Graceway Pharmaceuticals, LLC, priority 2005, dated 2011):

- melting point: 102.3 °C
SMILES: CC(C)c1cccc(C(C)C)c1NC(=O)CC(=O)N(Cc1ccccc1)C(C)C [Form A polymorph, N-benzyl-N′-(2,6-diisopropyl-phenyl)-N-isopropyl-malonamide]
